In patent publication EP0306826A1, “N-(substituted alkylidene)fused bicycloalkylidene and hetero-alkylidene quinolinamines, a process for their preparation and their use as medicaments” (HOECHST-ROUSSEL PHARMACEUTICALS INCORPORATED, priority 1987, dated 1989):

Tests used:
acetylcholinesterase = acetylcholinesterase (Homo sapiens, UniProt P22303); assay: Acetylcholinesterase Inhibition Assay (photometric method of Ellman et al.); format: biochemical
mice = assay: Dark Avoidance Assay (reversal of scopolamine induced memory deficit); format: in vivo
Description: In this assay mice are tested for their ability to remember an unpleasant stimulus for a period of 24 hours. A mouse is placed in a chamber that contains a dark compartment; a strong incandescent light drives it to the dark compartment, where an electric shock is administered through metal plates on the floor. The animal is removed from the testing apparatus and tested again, 24 hours later, for the ability to remember the electric shock.
If scopolamine, an anticholinergic that is known to cause memory impairment, is administered before an animal's initial exposure to the test chamber, the animal re-enters the dark compartment shortly after being placed in the test chamber 24 hours later. This effect of scopolamine is blocked by an active test compound, resulting in a greater interval before re-entry into the dark compartment.
The test results are expressed as the percent of a group of animals in which the effect of scopolamine is blocked, as manifested by an increased interval between being placed in the test chamber and re-entering the dark compartment.

Sequence of acetylcholinesterase (P22303 32-614): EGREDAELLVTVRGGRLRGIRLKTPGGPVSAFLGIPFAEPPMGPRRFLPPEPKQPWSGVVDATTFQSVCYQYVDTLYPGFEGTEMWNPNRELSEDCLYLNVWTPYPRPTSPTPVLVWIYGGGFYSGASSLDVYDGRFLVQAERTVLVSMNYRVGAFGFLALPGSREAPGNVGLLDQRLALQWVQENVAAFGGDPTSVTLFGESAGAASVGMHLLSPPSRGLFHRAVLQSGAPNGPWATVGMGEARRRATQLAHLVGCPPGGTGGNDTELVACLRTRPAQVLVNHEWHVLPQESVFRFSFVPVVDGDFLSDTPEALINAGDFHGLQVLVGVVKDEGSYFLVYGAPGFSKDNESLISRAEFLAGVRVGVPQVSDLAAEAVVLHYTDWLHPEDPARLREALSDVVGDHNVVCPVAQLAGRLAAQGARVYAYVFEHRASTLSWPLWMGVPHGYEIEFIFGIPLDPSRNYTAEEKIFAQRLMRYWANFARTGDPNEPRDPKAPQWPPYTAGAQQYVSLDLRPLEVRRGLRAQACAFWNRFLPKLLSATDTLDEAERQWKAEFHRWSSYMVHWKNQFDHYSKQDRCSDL

SMILES	IC50 (acetylcholinesterase)	% of Animals with Scopolamine Induced Memory Deficit Reversal (mice; mice, dose 0.31 mg/kg of body weight, s.c, retest 24 hours later)	% of Animals with Scopolamine Induced Memory Deficit Reversal (mice; mouse, in vivo, 0.31 mg/kg)
C(=Nc1c2c(nc3ccccc13)C1CCC2C1)c1ccccc1 (stereo not shown) [1,4-Methano-N-(phenylmethylene)-1,2,3,4-tetrahydro-9-acridinamine]	12 µM	27%	
FC(F)(F)c1ccc2c(N=Cc3ccccc3)c3c(nc2c1)C1CCC3C1 (stereo not shown) [1,4-Methano-N-(phenylmethylene)-6-trifluoromethyl-1,2,3,4-tetrahydro-9-acridinamine]	22 µM		
CNC(=O)Oc1ccc2c(c1)[C@]1(C)CCN(C)[C@@H]1N2C [Physostigmine, reference compound]			20%
